Test results as given in patent publication US12404295B2, “(Hetero)aryl-methyl-thio-beta-D-galactopyranoside derivatives” (Idorsia Pharmaceuticals Ltd, priority 2019, dated 2025).
pIC50: −log10 of the molar value. Like-named read-outs stand apart in the source and are kept apart here.

Legend:
human Gal-3 (hGal-3) = human Gal-3 (hGal-3) (Homo sapiens (Human), UniProt P17931); test: competitive binding assay: biotinylated hGal-3 binding to microplate-adsorbed asialofetuin (ASF)
Outline: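 Peroxidase activity developed with ABTS measures the biotinylated hGal-3 remaining on the asialofetuin-coated surface after competition with test compounds. Incubation ran 3 h at 4 °C, followed by 1 h with streptavidin-peroxidase at 80 ng/mL.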

human Gal-1 (hGal-1) = human Gal-1 (hGal-1) (Homo sapiens (Human), UniProt P09382); test: competitive binding assay: biotinylated hGal-1 binding to microplate-adsorbed asialofetuin (ASF); details: Table 15; read-out: IC50 (Galectin-1 inhibition)
Outline: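 Biotinylated human Gal-1 (300-1000 ng/mL) competes with serially diluted compound for binding to ASF-coated plates, 3 h at 4° C. Bound protein detected with streptavidin-peroxidase and ABTS substrate (spectrophotometric). IC50 given as mean of several measurements.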

[1] = Table 10, 2-OMe-Gal inhibitors, read-out: IC50 (Gal-3 inhibition)
[2] = Table 5, read-out: IC50 (Gal-3 inhibition)
[3] = Table 11, read-out: IC50 (Gal-3 inhibition)
[4] = Gal-3 inhibition, binding of biotinylated hGal-3 to ASF, mean values, read-out: IC50

human Gal-1 (hGal-1), sequence (P09382 whole entry): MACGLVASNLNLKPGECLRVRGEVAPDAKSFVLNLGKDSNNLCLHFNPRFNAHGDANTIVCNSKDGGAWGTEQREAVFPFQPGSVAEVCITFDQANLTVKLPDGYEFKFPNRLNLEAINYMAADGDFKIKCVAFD
human Gal-3 (hGal-3), sequence (P17931 whole entry): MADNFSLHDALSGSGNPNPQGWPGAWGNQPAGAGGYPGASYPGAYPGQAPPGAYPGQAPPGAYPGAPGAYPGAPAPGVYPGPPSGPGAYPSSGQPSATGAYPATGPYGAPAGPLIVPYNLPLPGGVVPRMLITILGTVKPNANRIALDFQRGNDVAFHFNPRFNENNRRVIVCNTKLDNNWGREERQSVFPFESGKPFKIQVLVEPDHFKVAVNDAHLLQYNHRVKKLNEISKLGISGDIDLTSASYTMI

Row | pIC50 (human Gal-1 (hGal-1)) | pIC50 (human Gal-3 (hGal-3); [2]) | SMILES | other results
1 | 6.68 | – | CO[C@@H]1[C@@H](n2cc(-c3cc(F)c(F)c(F)c3)nn2)[C@@H](O)[C@@H](CO)O[C@H]1S[C@H](c1ccccc1C1CC1)C1(O)CCC(F)(F)CC1 [Example 2.44.106R.I., (2R,3R,4S,5R,6S)-6-(((R)-(2-Cyclopropylphenyl)(4,4-difluoro-1-hydroxycyclohexyl)methyl)thio)-2-(hydroxymethyl)-5-methoxy-4-(4-(3,4,5-trifluorophenyl)-1H-1,2,3-triazol-1-yl)tetrahydro-2H-pyran-3-ol] | pIC50 (human Gal-3 (hGal-3); [1]): 6.74
2 | 6.02 | 6.52 | OC[C@H]1O[C@@H](SC(c2ccccc2C(F)(F)F)C2(O)CCC(F)(F)CC2)[C@H](O)[C@@H](n2cc(-c3cc(F)c(F)c(F)c3)nn2)[C@H]1O (stereo partly drawn) [Example 2.44.112., (2S,3R,4S,5R,6R)-2-(((4,4-Difluoro-1-hydroxycyclohexyl)(2-(trifluoromethyl)phenyl)methyl)thio)-6-(hydroxymethyl)-4-(4-(3,4,5-trifluorophenyl)-1H-1,2,3-triazol-1-yl)tetrahydro-2H-pyran-3,5-diol] | –
3 | 6.11 | 7.10 | OC[C@H]1O[C@@H](S[C@H](c2ccccc2C(F)(F)F)C2(O)CCC(F)(F)CC2)[C@H](O)[C@@H](n2cc(-c3cc(F)c(F)c(F)c3)nn2)[C@H]1O [Example 2.44.112R., (2S,3R,4S,5R,6R)-2-(((R)-(4,4-Difluoro-1-hydroxycyclohexyl)(2-(trifluoromethyl)phenyl)methyl)thio)-6-(hydroxymethyl)-4-(4-(3,4,5-trifluorophenyl)-1H-1,2,3-triazol-1-yl)tetrahydro-2H-pyran-3,5-diol] | –
4 | 5.89 | – | CO[C@@H]1[C@@H](n2cc(-c3cc(F)c(F)c(F)c3)nn2)[C@@H](O)[C@@H](CO)O[C@H]1SC(c1nc(C)c(C)nc1C)C1(O)CCC(F)(F)CC1 (stereo partly drawn) [Example 2.44.119.I., (2R,3R,4S,5R,6S)-6-(((4,4-Difluoro-1-hydroxycyclohexyl)(3,5,6-trimethylpyrazin-2-yl)methyl)thio)-2-(hydroxymethyl)-5-methoxy-4-(4-(3,4,5-trifluorophenyl)-1H-1,2,3-triazol-1-yl)tetrahydro-2H-pyran-3-ol] | pIC50 (human Gal-3 (hGal-3); [3]): 6.59
5 | 6.64 | 7.52 | Cc1nc(C)c([C@@H](S[C@@H]2O[C@H](CO)[C@H](O)[C@H](n3cc(-c4cc(F)c(F)c(F)c4)nn3)[C@H]2O)C2(O)CCC(F)(F)CC2)nc1C [Example 2.44.119R., (2S,3R,4S,5R,6R)-2-(((R)-(4,4-Difluoro-1-hydroxycyclohexyl)(3,5,6-trimethylpyrazin-2-yl)methyl)thio)-6-(hydroxymethyl)-4-(4-(3,4,5-trifluorophenyl)-1H-1,2,3-triazol-1-yl)tetrahydro-2H-pyran-3,5-diol] | –
6 | 6.35 | – | CO[C@@H]1[C@@H](n2cc(-c3cc(F)c(F)c(F)c3)nn2)[C@@H](O)[C@@H](CO)O[C@H]1S[C@H](c1nc(C)c(C)nc1C)C1(O)CCC(F)(F)CC1 [Example 2.44.119R.I., (2R,3R,4S,5R,6S)-6-(((R)-(4,4-Difluoro-1-hydroxycyclohexyl)(3,5,6-trimethylpyrazin-2-yl)methyl)thio)-2-(hydroxymethyl)-5-methoxy-4-(4-(3,4,5-trifluorophenyl)-1H-1,2,3-triazol-1-yl)tetrahydro-2H-pyran-3-ol] | pIC50 (human Gal-3 (hGal-3); [3]): 7.05
7 | 5.14 | 6.15 | Cc1nc(C)c([C@H](S[C@@H]2O[C@H](CO)[C@H](O)[C@H](n3cc(-c4cc(F)c(F)c(F)c4)nn3)[C@H]2O)C2(O)CCC(F)(F)CC2)nc1C [Example 2.44.119S., (2S,3R,4S,5R,6R)-2-(((S)-(4,4-Difluoro-1-hydroxycyclohexyl)(3,5,6-trimethylpyrazin-2-yl)methyl)thio)-6-(hydroxymethyl)-4-(4-(3,4,5-trifluorophenyl)-1H-1,2,3-triazol-1-yl)tetrahydro-2H-pyran-3,5-diol] | –
8 | 4.54 | – | CO[C@@H]1[C@@H](n2cc(-c3cc(F)c(F)c(F)c3)nn2)[C@@H](O)[C@@H](CO)O[C@H]1S[C@@H](c1nc(C)c(C)nc1C)C1(O)CCC(F)(F)CC1 [Example 2.44.119S.I., (2R,3R,4S,5R,6S)-6-(((S)-(4,4-Difluoro-1-hydroxycyclohexyl)(3,5,6-trimethylpyrazin-2-yl)methyl)thio)-2-(hydroxymethyl)-5-methoxy-4-(4-(3,4,5-trifluorophenyl)-1H-1,2,3-triazol-1-yl)tetrahydro-2H-pyran-3-ol] | pIC50 (human Gal-3 (hGal-3); [3]): 5.29
9 | 6.42 | 6.96 | Cc1conc1[C@@H](S[C@@H]1O[C@H](CO)[C@H](O)[C@H](n2cc(-c3cc(F)c(F)c(F)c3)nn2)[C@H]1O)C1(O)CCC(F)(F)CC1 [Example 2.44.120R., (2S,3R,4S,5R,6R)-2-(((R)-(4,4-Difluoro-1-hydroxycyclohexyl)(4-methylisoxazol-3-yl)methyl)thio)-6-(hydroxymethyl)-4-(4-(3,4,5-trifluorophenyl)-1H-1,2,3-triazol-1-yl)tetrahydro-2H-pyran-3,5-diol] | –
10 | 6.21 | – | CO[C@@H]1[C@@H](n2cc(-c3cc(F)c(F)c(F)c3)nn2)[C@@H](O)[C@@H](CO)O[C@H]1S[C@H](c1nocc1C)C1(O)CCC(F)(F)CC1 [Example 2.44.120R.I., (2R,3R,4S,5R,6S)-6-(((R)-(4,4-Difluoro-1-hydroxycyclohexyl)(4-methylisoxazol-3-yl)methyl)thio)-2-(hydroxymethyl)-5-methoxy-4-(4-(3,4,5-trifluorophenyl)-1H-1,2,3-triazol-1-yl)tetrahydro-2H-pyran-3-ol] | pIC50 (human Gal-3 (hGal-3); [1]): 6.68
11 | 4.65 | 5.08 | Cc1conc1[C@H](S[C@@H]1O[C@H](CO)[C@H](O)[C@H](n2cc(-c3cc(F)c(F)c(F)c3)nn2)[C@H]1O)C1(O)CCC(F)(F)CC1 [Example 2.44.120S., (2S,3R,4S,5R,6R)-2-(((S)-(4,4-Difluoro-1-hydroxycyclohexyl)(4-methylisoxazol-3-yl)methyl)thio)-6-(hydroxymethyl)-4-(4-(3,4,5-trifluorophenyl)-1H-1,2,3-triazol-1-yl)tetrahydro-2H-pyran-3,5-diol] | –
12 | 6.70 | 7.30 | OC[C@H]1O[C@@H](S[C@H](c2ncccc2C(F)(F)F)C2(O)CCC(F)(F)CC2)[C@H](O)[C@@H](n2cc(-c3cc(F)c(F)c(F)c3)nn2)[C@H]1O [Example 2.44.125R., (2S,3R,4S,5R,6R)-2-(((R)-(4,4-Difluoro-1-hydroxycyclohexyl)(3-(trifluoromethyl)pyridin-2-yl)methyl)thio)-6-(hydroxymethyl)-4-(4-(3,4,5-trifluorophenyl)-1H-1,2,3-triazol-1-yl)tetrahydro-2H-pyran-3,5-diol] | –
13 | 6.59 | – | CO[C@@H]1[C@@H](n2cc(-c3cc(F)c(F)c(F)c3)nn2)[C@@H](O)[C@@H](CO)O[C@H]1S[C@H](c1ncccc1C(F)(F)F)C1(O)CCC(F)(F)CC1 [Example 2.44.125R.I., (2R,3R,4S,5R,6S)-6-(((R)-(4,4-Difluoro-1-hydroxycyclohexyl)(3-(trifluoromethyl)pyridin-2-yl)methyl)thio)-2-(hydroxymethyl)-5-methoxy-4-(4-(3,4,5-trifluorophenyl)-1H-1,2,3-triazol-1-yl)tetrahydro-2H-pyran-3-ol] | pIC50 (human Gal-3 (hGal-3); Table 9, 2-OMe-Gal inhibitors, read-out: IC50 (Gal-3 inhibition)): 7.22
14 | 5.47 | 6.09 | OC[C@H]1O[C@@H](S[C@@H](c2ncccc2C(F)(F)F)C2(O)CCC(F)(F)CC2)[C@H](O)[C@@H](n2cc(-c3cc(F)c(F)c(F)c3)nn2)[C@H]1O [Example 2.44.125S., (2S,3R,4S,5R,6R)-2-(((S)-(4,4-Difluoro-1-hydroxycyclohexyl)(3-(trifluoromethyl)pyridin-2-yl)methyl)thio)-6-(hydroxymethyl)-4-(4-(3,4,5-trifluorophenyl)-1H-1,2,3-triazol-1-yl)tetrahydro-2H-pyran-3,5-diol] | –
15 | 7.22 | – | Cc1cccnc1C(S[C@@H]1O[C@H](CO)[C@H](O)[C@H](n2cc(-c3cc(F)c(F)c(F)c3)nn2)[C@H]1O)C1(O)CCC(F)(F)CC1 (stereo partly drawn) [Example 2.44.126., (2S,3R,4S,5R,6R)-2-(((4,4-Difluoro-1-hydroxycyclohexyl)(3-methylpyridin-2-yl)methyl)thio)-6-(hydroxymethyl)-4-(4-(3,4,5-trifluorophenyl)-1H-1,2,3-triazol-1-yl)tetrahydro-2H-pyran-3,5-diol] | pIC50 (human Gal-3 (hGal-3); [4]): 7.22
16 | 5.88 | – | CCO[C@@H]1[C@@H](n2cc(-c3cc(F)c(F)c(F)c3)nn2)[C@@H](O)[C@@H](CO)O[C@H]1SC(c1ncccc1C)C1(O)CCC(F)(F)CC1 (stereo partly drawn) [Example 2.44.126.II., (2R,3R,4S,5R,6S)-6-(((4,4-Difluoro-1-hydroxycyclohexyl)(3-methylpyridin-2-yl)methyl)thio)-5-ethoxy-2-(hydroxymethyl)-4-(4-(3,4,5-trifluorophenyl)-1H-1,2,3-triazol-1-yl)tetrahydro-2H-pyran-3-ol] | pIC50 (human Gal-3 (hGal-3); [4]): 6.80
17 | 6.52 | – | Cc1cccnc1[C@@H](S[C@@H]1O[C@H](CO)[C@H](O)[C@H](n2cc(-c3cc(F)c(F)c(F)c3)nn2)[C@H]1O)C1(O)CCC(F)(F)CC1 [Example 2.44.126R., (2S,3R,4S,5R,6R)-2-(((R)-(4,4-Difluoro-1-hydroxycyclohexyl)(3-methylpyridin-2-yl)methyl)thio)-6-(hydroxymethyl)-4-(4-(3,4,5-trifluorophenyl)-1H-1,2,3-triazol-1-yl)tetrahydro-2H-pyran-3,5-diol] | pIC50 (human Gal-3 (hGal-3); [4]): 7.40
